Series [1] can be described thus: in vitro. The conditions noted are these: human.
Series [2] has as its system SARS-CoV-2 stock strain NL/2020. Briefly: Intracellular viral antigen (N protein) accumulation by immunofluorescence, A549-ACE2. Type of series: cell-based. The settings on record: Severe acute respiratory syndrome coronavirus 2; A549-ACE2, MOI 0.005, viral antigen staining, 48 h.
For series [3] the test system is unchanged. Kind of series: Protective effect against virus-induced cytopathic effect (crystal violet staining of Vero-E6 monolayer). It is filed as cell-based. The conditions noted are these: Severe acute respiratory syndrome coronavirus 2, Vero C1008, 72 h, Vero-E6, SARS-CoV-2 MOI 0.001, 72 h; for minimal effective concentration: 50 to 0.78 μM tested, read-out: PC MIN (lowest protective concentration); for EC50: lowest fully protecting concentration averaged with next lower dilution, read-out: ESTIMATED EC50.

Series [4] shares this test system. Briefly: Intracellular viral antigen (N protein) accumulation by immunofluorescence, Vero-E6. The settings on record: Severe acute respiratory syndrome coronavirus 2, Vero C1008; Vero-E6, MOI 0.005, viral antigen staining, 24 h. It is filed as cell-based.
Series [5] is described as follows: in vitro. The settings on record: African green monkey.
Series [6] has as its system SARS-CoV-2 stock strain NL/2020. Briefly: Intracellular viral antigen (N protein) accumulation by immunofluorescence, Calu3. It is filed as cell-based. The conditions noted are these: Severe acute respiratory syndrome coronavirus 2; Calu-3, MOI 0.005, viral antigen staining, 48 h.
For series [7], the system named is WNV-GFP virus. It is filed as cell-based, West Nile Virus. The conditions noted are these: Huh-7, MOI 0.01, 48 h, FIG. 2.
In series [8] the test system is hCoV-229E-GFP virus. Type of series: cell-based, Human coronavirus 229E.
Series [9] concerns SARS-CoV-2 stock strain NL/2020. Kind of series: Intracellular viral RNA quantification by RT-qPCR in A549-ACE2 cells. Type of series: cell-based. The settings on record: for LOG viral RNA reduction: A549-ACE2, MOI 0.005, 48 h, vs DMSO; for Prevention of SARS-CoV-2 propagation (in words): A549-ACE2, conclusion from Table 5. In general terms: Quantitative PCR measures a nucleic acid by following its amplification.

Series [10] deals with VSV-GFP virus. Type of series: cell-based, Vesicular Stomatitis Virus.
Series [11] can be described thus: in vitro. The settings on record: human. The source holds these as a separate data set.

The source of these data is patent US20250296914A1, “ANTIVIRAL COMPOUNDS AND COMPOSITIONS THEREFROM” (CONSEJO SUPERIOR DE INVESTIGACIONES CIENTÍFICAS, priority 2022, published 2025).

Take `COC(=O)c1cc(-c2ccnc(N3CCOCC3)c2)ccc1NC(C#N)[C@H](Cc1c[nH]c2ccccc12)NC(=O)OC(C)(C)C` (stereo partly drawn) [(Ian), methyl 2-(((2S)-2-((tert-butoxycarbonyl)amino)-1-cyano-3-(1H-indol-3-yl)propyl)amino)-5-(2-morpholinopyridin-4-yl)benzoate]: the CC50 at 48 h in [1] was over 50000 nM. In series [2], this molecule returned an EC50 of 1100 nM and an EC90 of 6000 nM. In series [3], the minimal effective concentration came out at 1.85 µM and the EC50 was 1390 nM.

In the case of `COC(=O)c1cc(Br)ccc1NC(C#N)[C@H](Cc1c[nH]c2ccccc12)NC(=O)OC(C)(C)C` (stereo partly drawn) [(Ib), methyl 5-bromo-2-(((2S)-2-((tert-butoxycarbonyl)amino)-1-cyano-3-(1H-indol-3-yl)propyl)amino)benzoate], the concentration giving a half-maximal response (EC50) was 1800 nM in series [2], 500 nM in series [4], 580 nM in series [3] and 1200 nM in series [6]. Moreover, the figures for the concentration for an effect of 90% (EC90) in series [2], in [4] and in series [6] were 2700 nM, 2200 nM and 2500 nM, respectively. Besides, in series [3], the minimal effective concentration came to 0.78 µM. In series [5], this molecule showed a CC50 at 48 h of over 12500 nM.

For the molecule `CC(C)(C)OC(=O)N[C@@H](Cc1c[nH]c2ccccc12)C(C#N)Nc1ccc(Br)cc1C(=O)c1ccccc1` (stereo partly drawn) [(Ic), (3S)-2-((4-Bromo-2-benzoylphenyl)amino)-4-(1H-indol-3-yl)-3-(tert-butoxycarbonylamino)butanenitrile], in [7], the “Prevention of infection by West Nile Virus (GFP expression, in words)” value was “not being suitable for preventing the infection”. The “Prevention of infection with 229E-GFP (GFP expression, in words)” value in series [8] is listed as “suitable for preventing efficiently the infection”. In addition, the “LOG viral RNA reduction” value in [9] (compound concentration 4 μM) is recorded as 4.26 LOG. Moreover, the “Prevention of SARS-CoV-2 propagation (in words)” value in series [9] is listed as “effective in preventing propagation of SARS-CoV-2”. Further, the EC50 in series [2] is 1000 nM; in series [4] it was 200 nM; in series [3] it was 580 nM; in [6] it was 1200 nM. In addition, the EC90 is 2100 nM in series [2], 300 nM in series [4] and 1800 nM in series [6]. Besides, the “Prevention of infection by Vesicular Stomatitis Virus (GFP expression, in words)” value in series [10] was “not being suitable for preventing the infection”. In addition, the minimal effective concentration in series [3] worked out at 0.78 µM. In addition, in [5], the CC50 at 48 h is over 50000 nM.

Regarding `CC(C)(C)OC(=O)N[C@@H](Cc1c[nH]c2ccccc12)C(C#N)Nc1ccc(Cl)cc1C(=O)c1ccccc1` (stereo partly drawn) [(Id), (3S)-3-(tert-Butoxycarbonylamino)-4-(1H-indol-3-yl)-2-((2-benzoyl-4-chlorophenyl)amino)butanenitrile], the EC50 in [2] was 600 nM; in series [4], 200 nM; in [3] it was 580 nM; in series [6] it was 300 nM. Further, the 90% effect concentration (EC90) in series [2] came out at 1400 nM; in series [4] it was 500 nM; in series [6], 1100 nM. In addition, the minimal effective concentration in [3] was 0.78 µM. Also, in [5], the CC50 at 48 h is over 50000 nM.

`COC(=O)c1cc(-c2ccc3c(c2)OCCO3)ccc1NC(C#N)[C@H](Cc1c[nH]c2ccccc12)NC(=O)OC(C)(C)C` (stereo partly drawn) [(If), methyl 2-(((2S)-2-((tert-butoxycarbonyl)amino)-1-cyano-3-(1H-indol-3-yl)propyl)amino)-5-(2,3-dihydrobenzo[b][1,4]dioxin-6-yl)benzoate]: the results for the CC50 at 48 h in series [1], in series [11] and in [5] were over 50000 nM, 50000 nM and over 50000 nM, respectively. In series [9] (compound concentration 4 μM), the “LOG viral RNA reduction” value is given as 5.14 LOG. Also, in series [9], the “Prevention of SARS-CoV-2 propagation (in words)” value is listed as “effective in preventing propagation of SARS-CoV-2”. Also, the EC50 was 1000 nM in [2], 1000 nM in series [4], 580 nM in [3] and 2000 nM in series [6]. Besides, the values for the 90% effect concentration (EC90) in series [2], in series [4] and in series [6] were 1800 nM, 1800 nM and 4000 nM, respectively. In addition, the minimal effective concentration in [3] was 0.78 µM.

Regarding `COC(=O)c1cc(-c2cccc(N3CCOCC3)c2)ccc1NC(C#N)[C@H](Cc1c[nH]c2ccccc12)NC(=O)OC(C)(C)C` (stereo partly drawn) [(Ig), methyl 4-(((2S)-2-((tert-butoxycarbonyl)amino)-1-cyano-3-(1H-indol-3-yl)propyl)amino)-3′-morpholino-[1,1′-biphenyl]-3-carboxylate], the CC50 at 48 h in series [1], in series [11] and in [5] was over 50000 nM throughout. Also, the EC50 in series [2] is 1800 nM; in series [4], 1300 nM; in series [3], 580 nM; in [6], 1800 nM. Also, the EC90 is 8000 nM in [2], 2000 nM in series [4] and 8000 nM in [6]. Moreover, the minimal effective concentration in series [3] amounted to 0.78 µM.

Take `CCOC(=O)c1ccccc1NC(C#N)[C@H](Cc1c[nH]c2ccccc12)NC(=O)OC(C)(C)C` (stereo partly drawn) [(Ih), ethyl 2-(((2S)-2-((tert-butoxycarbonyl)amino)-1-cyano-3-(1H-indol-3-yl)propyl)amino)-benzoate]: the half-maximal effective concentration (EC50) in series [2] was 4000 nM; in series [4] it was 100 nM; in series [3] it was 1170 nM; in series [6], 3700 nM. Further, the EC90 came to 7000 nM in [2], 2500 nM in series [4] and 4000 nM in series [6]. The minimal effective concentration in series [3] was found to be 1.56 µM. Further, in series [5], the CC50 at 48 h is over 12500 nM.

Consider `COC(=O)c1ccc(Br)cc1NC(C#N)[C@H](Cc1c[nH]c2ccccc12)NC(=O)OC(C)(C)C` (stereo partly drawn) [(Ii), methyl 4-bromo-2-(((2S)-2-((tert-butoxycarbonyl)amino)-1-cyano-3-(1H-indol-3-yl)propyl)-amino)benzoate], for which the EC50 was 2000 nM in series [2], 200 nM in series [4], 1170 nM in [3] and under 900 nM in [6]. Further, the EC90 in [2] is 6000 nM; in series [4], 1400 nM; in series [6] it was 2700 nM. In addition, in [3], the minimal effective concentration came out at 1.56 µM. In [5], this molecule had a CC50 at 48 h of over 12500 nM.

Consider `COC(=O)c1cc(-c2cc(OC(C)C)ccc2F)ccc1NC(C#N)[C@H](Cc1c[nH]c2ccccc12)NC(=O)OC(C)(C)C` (stereo partly drawn) [(Ip), methyl 4-(((2S)-2-((tert-butoxycarbonyl)amino)-1-cyano-3-(1H-indol-3-yl)propyl)amino)-2′-fluoro-5′-isopropoxy-[1,1′-biphenyl]-3-carboxylate], for which the half-maximal effective concentration (EC50) in [2] is 5000 nM; in series [4], 1500 nM; in [3] it was 1170 nM; in series [6], 1800 nM. Besides, the concentration for an effect of 90% (EC90) in series [2] was 9000 nM; in [4], 7000 nM; in series [6] it was 8000 nM. In addition, the minimal effective concentration in series [3] is 1.56 µM. This molecule registered a CC50 at 48 h in series [5] of over 50000 nM.

Regarding `COC(=O)c1cc(-c2ccc(N3CCOCC3)nc2)ccc1NC(C#N)[C@H](Cc1c[nH]c2ccccc12)NC(=O)OC(C)(C)C` (stereo partly drawn) [(Is), methyl 2-(((2S)-2-((tert-butoxycarbonyl)amino)-1-cyano-3-(1H-indol-3-yl)propyl)amino)-5-(6-morpholinopyridin-3-yl)benzoate], the CC50 at 48 h in [1], in series [11] and in [5] was over 50000 nM throughout. In addition, the EC50 in [2] is 2000 nM; in series [4], 400 nM; in [3], 1170 nM; in series [6], 1300 nM. For the same molecule, the concentration for an effect of 90% (EC90) in [2] was determined as 8000 nM; in [4], 1800 nM; in series [6], 8000 nM. For the same molecule, in series [3], the minimal effective concentration came to 1.56 µM.

With `COC(=O)c1cc(-c2cccc(C(C)(C)C)c2)ccc1NC(C#N)[C@H](Cc1c[nH]c2ccccc12)NC(=O)OC(C)(C)C` (stereo partly drawn) [(Iz), methyl 4-(((2S)-2-((tert-butoxycarbonyl)amino)-1-cyano-3-(1H-indol-3-yl)propyl)amino)-3′-(tert-butyl)-[1,1′-biphenyl]-3-carboxylate], in [3], the minimal effective concentration was determined as 3.12 µM and the EC50 is 2340 nM.

In the case of `CCC(CC)COC(=O)[C@H](C)N[P@](=O)(OC[C@H]1O[C@@](C#N)(c2ccc3c(N)ncnn23)[C@H](O)[C@@H]1O)Oc1ccccc1` [Remdesivir, remdesivir, reference compound], the “LOG viral RNA reduction” value in [9] (compound concentration 5 μM) is 6.67 LOG.

A word on the EC50: it is the concentration needed to bring the measured effect to its halfway point. A word on the EC90: it is the concentration needed for an effect of 90%.
